Drawing on US6008019A, “Plasminogen activator from saliva of the vampire bat” (Schering Aktiengesellschaft, priority 1989, dated 1999), this text covers Km for two molecules.

The target in assay [1] is T1, t-PA (tissue-type plasminogen activator) (Homo sapiens, UniProt P00750). Briefly: Km determination of amidolytic chromogenic substrates with t-PA. The assay is classed as biochemical. Particulars: 3 units per hole, 100 mM Tris pH 8.0/100 mM NaCl/0.01% Tween 80, 37° C., Lineweaver-Burk plot. On the procedure: (§1) In a 96-hole plate, respectively 90 μl of 100 mM Tris pH 8.0/100 mM NaCl/0.01% "Tween" 80 and 50 μl of the corresponding chromogenic substrate (all from Kabi Vitrum, Stockholm, Sweden) in the final concentrations of 0.03/0.06/0.1/0.3/0.6 and 1 mM are incubated with 10 μl (3 units per hole) of the corresponding plasminogen activator at 37° C., and the thus-released p-nitroaniline is determined photometrically at 405 nm at various points in time between 0-7 hours. The resultant data are evaluated with the aid of a Lineweaver-Burk plot, and the Km value is determined (Segel, I. H., Enzyme Kinetics, John Wiley and Sons, New York). The following chromogenic substrates were utilized:

Assay [2] has as its target T2, Urokinase (Homo sapiens, UniProt P00749). Briefly: Km determination of amidolytic chromogenic substrates with urokinase. As to conditions: 3 units per hole, 100 mM Tris pH 8.0/100 mM NaCl/0.01% Tween 80, 37° C., Lineweaver-Burk plot. Format: biochemical. On the procedure: as §1
The target in assay [3] is T1, t-PA (tissue-type plasminogen activator). Particulars: literature value (Friedberger 1982), read-out: Km (value in parentheses, from the literature); cited from earlier work.
For assay [4], the target named is T2, Urokinase. Particulars: literature value (Friedberger 1982), read-out: Km (value in parentheses, from the literature); cited from earlier work.

Read-outs that look alike come from different tables or passages of the source. Where a SMILES comes first, the peptide text is derived from it. [ ]: non-standard residue; d: D form. The star is where a group is joined. pNA = O=[N+]([O-])c1ccc(N*)cc1; pGlu = O=C1CC[C@@H](C(=O)O)N1

T1 sequence (P00750 36-562): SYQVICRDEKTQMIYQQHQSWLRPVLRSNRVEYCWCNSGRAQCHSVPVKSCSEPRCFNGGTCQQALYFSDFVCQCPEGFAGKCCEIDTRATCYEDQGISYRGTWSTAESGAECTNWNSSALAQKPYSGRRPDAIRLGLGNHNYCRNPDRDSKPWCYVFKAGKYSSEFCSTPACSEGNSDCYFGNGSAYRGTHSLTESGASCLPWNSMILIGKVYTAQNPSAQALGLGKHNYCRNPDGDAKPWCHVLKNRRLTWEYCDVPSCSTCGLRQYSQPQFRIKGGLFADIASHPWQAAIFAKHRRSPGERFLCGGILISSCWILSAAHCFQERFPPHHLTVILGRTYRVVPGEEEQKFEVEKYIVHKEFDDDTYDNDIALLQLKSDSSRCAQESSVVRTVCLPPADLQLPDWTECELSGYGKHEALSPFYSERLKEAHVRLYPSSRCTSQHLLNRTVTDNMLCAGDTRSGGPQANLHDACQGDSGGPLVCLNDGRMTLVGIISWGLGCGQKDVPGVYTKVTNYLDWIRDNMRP

Turning to `CC[C@@H](C)[C@@H](N)C(=O)N1CCC[C@H]1C(=O)N[C@@H](CCCNC(=N)N)C(=O)Nc1ccc([N+](=O)[O-])cc1` [S-2288, H-D-Ile-Pro-Arg-pNA] (H-[dI]-Pro-Arg-pNA), the Michaelis constant (Km) in assay [1] is 700 µM; at Urokinase [2] (read-out: Km), 400 µM; in assay [3], 1000 µM.
As for `N=C(N)NCCC[C@H](NC(=O)CNC(=O)[C@@H]1CCC(=O)N1)C(=O)Nc1ccc([N+](=O)[O-])cc1` [S-2444, <Glu-Gly-Arg-pNA] ([pGlu]-Gly-Arg-pNA), the Michaelis-Menten constant (Km) at Urokinase [2] is 100 µM; on Urokinase [4] it was 90 µM.
